Data as given in paper PMC8430323, “Microbial Enzymatic Synthesis of Amikacin Analogs With Antibacterial Activity Against Multidrug-Resistant Pathogens” (Frontiers in Microbiology, 2021).

Experiments:
AAC(6′)-APH(2^″) = molecular target: T1, AAC(6′)-APH(2^″) (Staphylococcus aureus, UniProt P0A0C1); assay: UPLC-qTOF-HR-MS of […]'-N-acylation product, structure confirmed by NMR; type: biochemical; settings: acyl donor; one-pot with GenN, amikacin 2 mM, SAM 2 mM, 50 mM Tris-HCl pH 7.5, 30 °C, 12 h, enzyme 500 μM
T1 construct: gene aacA-aphD; codon-optimized synthetic gene in pET15b, His-tagged, expressed in E. coli BL21(DE3), Ni-NTA purified; bifunctional enzyme

GenN = molecular target: T2, GenN (Micromonospora echinospora, UniProt Q2MG72); assay: UPLC-qTOF-HR-MS of methylation product, structure confirmed by NMR; type: biochemical; settings: SAM 2 mM, amikacin 2 mM, 50 mM Tris-HCl pH 7.5, 30 °C, 12 h, enzyme 500 μM
T2 construct: codon-optimized synthetic gene in pJExpress404, His-tagged, expressed in E. coli BL21(DE3), Ni-NTA purified
T2 sequence (Q2MG72 1-321): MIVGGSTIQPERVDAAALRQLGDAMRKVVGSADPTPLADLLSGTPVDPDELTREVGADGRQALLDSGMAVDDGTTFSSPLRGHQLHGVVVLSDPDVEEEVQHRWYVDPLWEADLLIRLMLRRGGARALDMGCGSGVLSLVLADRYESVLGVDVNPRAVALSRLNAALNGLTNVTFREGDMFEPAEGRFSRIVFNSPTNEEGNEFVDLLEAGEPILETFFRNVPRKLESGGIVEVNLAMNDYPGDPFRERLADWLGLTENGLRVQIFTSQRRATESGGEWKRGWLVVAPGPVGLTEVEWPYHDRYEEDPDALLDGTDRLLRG

T1 sequence (P0A0C1 whole entry): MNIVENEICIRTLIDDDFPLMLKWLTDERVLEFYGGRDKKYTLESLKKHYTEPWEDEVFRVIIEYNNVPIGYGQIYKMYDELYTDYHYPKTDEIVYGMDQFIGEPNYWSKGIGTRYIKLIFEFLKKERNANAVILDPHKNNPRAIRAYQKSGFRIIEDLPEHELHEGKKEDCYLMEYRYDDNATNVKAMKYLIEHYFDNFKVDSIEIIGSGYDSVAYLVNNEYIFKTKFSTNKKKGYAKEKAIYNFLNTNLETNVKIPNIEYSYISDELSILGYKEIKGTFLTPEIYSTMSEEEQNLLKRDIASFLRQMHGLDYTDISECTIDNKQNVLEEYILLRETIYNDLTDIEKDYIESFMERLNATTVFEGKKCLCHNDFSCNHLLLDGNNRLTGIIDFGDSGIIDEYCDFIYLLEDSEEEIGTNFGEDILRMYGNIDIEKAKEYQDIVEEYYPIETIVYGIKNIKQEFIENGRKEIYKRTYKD

| Compound | conversion yield (AAC(6′)-APH(2^″)) | conversion yield (GenN) |
| --- | --- | --- |
| CC(=O)SCCNC(=O)CCNC(=O)[C@H](O)C(C)(C)COP(=O)(O)OP(=O)(O)OC[C@H]1O[C@@H](n2cnc3c(N)ncnc32)[C@H](O)[C@@H]1OP(=O)(O)O [acetyl-CoA] | Incubation with acetyl-CoA and propionyl-CoA as cosubstrates led to the formation of new UPLC peaks | – |
| NCC[C@H](O)C(=O)N[C@@H]1C[C@H](N)[C@@H](O[C@H]2O[C@H](CN)[C@@H](O)[C@H](O)[C@H]2O)[C@H](O)[C@H]1O[C@H]1O[C@H](CO)[C@@H](O)[C@H](N)[C@H]1O [amikacin] | – | Amikacin was an excellent substrate for SAM-dependent methylation by GenN |
| CCC(=O)SCCNC(=O)CCNC(=O)[C@H](O)C(C)(C)COP(=O)(O)OP(=O)(O)OC[C@H]1O[C@@H](n2cnc3c(N)ncnc32)[C@H](O)[C@@H]1OP(=O)(O)O [propionyl-CoA] | Incubation with acetyl-CoA and propionyl-CoA as cosubstrates led to the formation of new UPLC peaks | – |
